Series [1] deals with T1, BRDT-BD1 (Homo sapiens, UniProt Q58F21). In words: BromoKdELECT assay. It is filed as binding. The arrangement: the first bromodomain of BRDT (BRDT-BD1); purchased Eurofins DiscoverX (Fremont, CA); host or cells: E. coli host derived from the BL21 strain, T7 phage.
Series [2] relates to MOLM-13 cells. The series can be described thus: Apoptosis detection (Annexin V) by flow cytometry. As to conditions: 72 h of treatment. It is filed as cell-based.
Series [3] concerns the target T2, BRD4-BD1 (Homo sapiens, UniProt O60885). The series can be described thus: BromoKdELECT assay. It is filed as binding. On the set-up: the bromodomain 1 (BD1) of BRD4; purchased Eurofins DiscoverX (Fremont, CA); host or cells: E. coli host derived from the BL21 strain, T7 phage.
In series [4] the target is T3, BRDT-BD2 (Homo sapiens, UniProt Q58F21).
T3 construct: two similar tandem bromodomains (BD1 and BD2); made in house; host or cells: bacteria (pET15b or pET28b vector)
The series can be described thus: AlphaScreen competition assay with biotinylated JQ1. Type of series: binding. The note with it: read-out: BRDT-BD2 IC50.

Series [5] has as its system MV4;11 cells. The series can be described thus: Cell viability by CellTiterGlo. It is filed as cell-based. As to conditions: Homo sapiens, MV4-11.
Series [6] relates to MOLM-13 cells. In words: Cell viability by CellTiterGlo. It is filed as cell-based. The note with it: Homo sapiens, MOLM-13; 72 h of treatment, CellTiterGlo, normalized to DMSO; read-out: Viability IC50 MOLM-13.
Series [7] addresses T1, BRDT-BD1. In words: AlphaScreen competition assay with biotinylated JQ1. Type of series: binding. The arrangement: the first bromodomain of BRDT (BRDT-BD1); made in house; host or cells: bacteria (pET15b or pET28b vector).
Series [8] concerns the target T4, BRD2-BD1 (Homo sapiens, UniProt P25440).
T4 construct: two similar tandem bromodomains (BD1 and BD2); purchased Eurofins DiscoverX (Fremont, CA); host or cells: E. coli host derived from the BL21 strain, T7 phage
The series can be described thus: BromoKdELECT assay. It is filed as binding.

Series [9] deals with MYC expression in MV4;11 cells. The series can be described thus: MYC expression by RT-qPCR. The note with it: 8 h of treatment. Type of series: cell-based.
For series [10], the system named is MYC expression in MOLM-13 cells. In words: MYC expression by RT-qPCR. It is filed as cell-based. As to conditions: 8 h of treatment.
Series [11] concerns Kasumi1 cells. The series can be described thus: Cell viability by CellTiterGlo. The note with it: Homo sapiens, Kasumi 1; 72 h of treatment, CellTiterGlo, normalized to DMSO; read-out: Viability IC50 Kasumi1. Type of series: cell-based.
Series [12] addresses T2, BRD4-BD1. In words: AlphaScreen competition assay with biotinylated JQ1. It is filed as binding. On the set-up: the bromodomain 1 (BD1) of BRD4; made in house; host or cells: bacteria (pET15b or pET28b vector).
In series [13] the target is T5, BRD4-BD2 (Homo sapiens, UniProt O60885).
T5 construct: two similar tandem bromodomains (BD1 and BD2); made in house; host or cells: bacteria (pET15b or pET28b vector)
Described as above. The note with it: read-out: BRD4-BD2 IC50. Type of series: binding.

A short description of series [14]: Metabolic stability assay in liver microsomes (MLM). As to conditions: mouse liver microsomes 0.5 mg protein/mL, compound 2.0 μM, NADPH 1.0 mM; read-out: MLM t1/2 (half-life). Type of series: in vitro ADME.
Series [15] has as its target T6, BRD3-BD1 (Homo sapiens, UniProt Q15059).
T6 construct: two similar tandem bromodomains (BD1 and BD2); purchased Eurofins DiscoverX (Fremont, CA); host or cells: E. coli host derived from the BL21 strain, T7 phage
In words: BromoKdELECT assay. It is filed as binding.

In series [16] the test system is MV4;11 cells. The series can be described thus: Cell cycle analysis by flow cytometry. Type of series: cell-based. The note with it: 24 h of treatment at the IC50.
The test system of series [17] is THP1 cells. In words: Cell viability by CellTiterGlo. The note with it: Homo sapiens, THP-1; 72 h of treatment, CellTiterGlo, normalized to DMSO; read-out: Viability IC50 THP1. Type of series: cell-based.
Series [18] relates to MV4;11 cells. In words: Apoptosis detection (Annexin V) by flow cytometry. It is filed as cell-based. The note with it: 72 h of treatment.
Series [19] is described as follows: Metabolic stability assay in liver microsomes (HLM). It is filed as in vitro ADME. The note with it: human liver microsomes 0.5 mg protein/mL, compound 2.0 μM, NADPH 1.0 mM; read-out: HLM t1/2 (half-life).
Series [20] relates to MOLM-13 cells. In words: Cell cycle analysis by flow cytometry. It is filed as cell-based. The note with it: 24 h of treatment at the IC50.
Series [21] deals with T7, BRD2-BD2 (Homo sapiens, UniProt P25440).
T7 construct: two similar tandem bromodomains (BD1 and BD2); purchased Eurofins DiscoverX (Fremont, CA); host or cells: E. coli host derived from the BL21 strain, T7 phage
In words: BromoKdELECT assay. Type of series: binding.

The target in series [22] is T8, BRD3-BD2 (Homo sapiens, UniProt Q15059).
T8 construct: two similar tandem bromodomains (BD1 and BD2); purchased Eurofins DiscoverX (Fremont, CA); host or cells: E. coli host derived from the BL21 strain, T7 phage
The series can be described thus: BromoKdELECT assay. It is filed as binding.

For series [23], the target named is T2, BRD4-BD1. On the set-up: the bromodomain 1 (BD1) of BRD4; purchased Eurofins DiscoverX (Fremont, CA); host or cells: E. coli host derived from the BL21 strain, T7 phage. As to conditions: read-out: IC50 BRD4-BD1 AlphaScreen; cited from earlier work.
Series [24] concerns the target T4, BRD2-BD1. The note with it: cited from earlier work.
For series [25], the target named is T2, BRD4-BD1. On the set-up: the bromodomain 1 (BD1) of BRD4; purchased Eurofins DiscoverX (Fremont, CA); host or cells: E. coli host derived from the BL21 strain, T7 phage. The note with it: BROMOscan assays; cited from earlier work.
For series [26], the target named is TAF1-BD2. As to conditions: BROMOscan profile; cited from earlier work.
Series [27] concerns the target TAF1L-BD2. The note with it: BROMOscan profile; cited from earlier work.

Each structure is given as a SMILES string. Read-outs that look alike come from different tables or passages of the source.

T6 sequence (Q15059 34-140 limits assumed): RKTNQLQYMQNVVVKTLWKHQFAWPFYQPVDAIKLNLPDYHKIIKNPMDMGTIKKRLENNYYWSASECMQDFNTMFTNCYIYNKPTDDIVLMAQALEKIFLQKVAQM
T4 sequence (P25440 74-180 limits assumed): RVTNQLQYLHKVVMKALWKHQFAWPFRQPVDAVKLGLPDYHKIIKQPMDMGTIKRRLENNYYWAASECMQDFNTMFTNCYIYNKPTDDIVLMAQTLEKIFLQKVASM
T7 sequence (P25440 344-453 limits assumed): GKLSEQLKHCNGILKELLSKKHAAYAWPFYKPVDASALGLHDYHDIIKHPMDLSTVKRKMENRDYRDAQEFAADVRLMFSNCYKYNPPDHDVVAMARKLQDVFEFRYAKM
T8 sequence (Q15059 306-415 limits assumed): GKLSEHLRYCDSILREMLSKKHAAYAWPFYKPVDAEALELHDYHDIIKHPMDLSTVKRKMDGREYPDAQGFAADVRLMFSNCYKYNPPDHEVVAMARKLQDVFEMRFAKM

Consider `CNC(=O)[C@@H](CC1CCN(C(=O)Cc2ccc3[nH]c(=O)cc(C)c3c2)CC1)NC(=O)c1ccc(-c2ccc(C)cc2C)cn1` [CDD-787], for which the Kd in series [1] came to 0.22 nM; in series [3], 0.29 nM; in [8] (BromoKdELECT) it was 0.26 nM; in [15] (BromoKdELECT), 0.13 nM; in series [21], 110 nM; in series [22], 770 nM. The IC50 in series [1] (read-out: IC50 against BRDT-BD1) came to 0.22 nM; in series [3] (read-out: IC50 against BRD4-BD1), 0.29 nM; in series [4] it was 10400 nM; in series [5] (72 h of treatment, CellTiterGlo, normalized to DMSO, read-out: Viability IC50 MV4;11) it was 8.3 nM; in [6], 16 nM; in series [7] it was 2.1 nM. For the same compound, the IC50 in [8] (BromoKdELECT, read-out: IC50 against BRD2-BDT1) was determined as 0.26 nM; in [11], 8.4 nM; in series [12] (read-out: BRD4-BD1 IC50), 3.3 nM; in [13] it was 12900 nM; in series [15] (BromoKdELECT, read-out: IC50 against BRD3-BD1), 0.13 nM; in [17] it was 11.8 nM. Further, in series [2], the “Induction of apoptosis (Annexin V+ cells), MOLM-13” value is reported as “apoptosis”. In addition, the EC50 in series [5] (Table S6, NE = not efficient, read-out: MV4-11 EC50 (viability)) was 8 nM. For the same compound, the “fold more potent than the S-enantiomer (CDD-786) in inhibiting BRDT-BD1” value in series [7] is reported as 50 fold. The “fold more potent than (+)-JQ1 for BRDT-BD1” value in [7] (AlphaScreen) stood at 22 fold. The “fold more selective than (+)-JQ1 for BRDT-BD1” value in [7] (AlphaScreen) is ~2,200 fold. For the same compound, the BRD2-BD1 selectivity in series [8] (over BRD2-BD2, BromoKdELECT Kd ratio) came out at 420 fold. For the same compound, the “MYC expression, MV4;11” value in [9] is “suppressed”. Moreover, the “MYC expression, MOLM-13” value in [10] is recorded as “suppressed”. Also, the “BRD4-BD1 vs. BRD4-BD2 fold (BRD4-BD1 selectivity)” value in series [12] (ratio of AlphaScreen IC50 values, NE = not efficient) was determined as 3909 fold. Further, the half-life at 2 μM in [14] was determined as 13 min; in series [19], 33 min. In series [15] (over BRD3-BD2, BromoKdELECT Kd ratio), the BRD3-BD1 selectivity is reported as 5,920 fold. For the same compound, the “Effect on the cell cycle, MV4;11” value in [16] was “G1 arrest”. For the same compound, the “Induction of apoptosis (Annexin V+ cells), MV4;11” value in series [18] is given as “apoptosis”. Further, the “Effect on the cell cycle, MOLM-13” value in series [20] was “G1 arrest”.
With `COc1ccccc1S(=O)(=O)Nc1ccc2c3c(cc(-n4cnc(C)c4)nc13)C(=O)N2C` [LT052], the IC50 was 88 nM in series [23] and 9000 nM in series [24]. Also, in series [25], the “selectivity for BRD4-BD1 over BRD4-BD2” value is reported as 138 fold.
`Cc1cc2c(-c3ccco3)cnc(N[C@@H]3CCN(C)C[C@H]3C(=O)NC3CCCCC3)c2[nH]c1=O` [GSK789]: the figures for the Kd in [26] and in [27] were 50 nM and 398 nM, respectively.

The record behind these values is PMC9295786, “Discovery of potent BET bromodomain 1 stereoselective inhibitors using DNA-encoded chemical library selections” (Proceedings of the National Academy of Sciences of the …, 2022).
